Where “and” joins values, the source holds several entries; their conditions need not be identical. Identical values can stand only once.

The target of data set [1] is Ba/F3 EGFR-D770_N771insSVD (Homo sapiens, UniProt P00533, DUP768-770, cells depend on it). Description: Anti-proliferation against Ba/F3 exon 20 insertion mutant cells (SVD). The following applies: CTG, 72 hours, read-out: Mutant cells IC50 (anti-proliferation). It counts as cell-based, mouse. The text has this: RPMI1640 medium was purchased from Hyclone, FBS fetal bovine serum was purchased from GBICO, and trypsin-EDTA were both purchased from Giboco. DPBS was purchased from Corning, penicillin/streptomycin solution was purchased from Hyclone, and Cell-Titer Glo reagent was purchased from Promega (Cat. No. G7572). Ba/F3 EGFR-D770_N771insSVD, Ba/F3 EGFR-H773_V774insNPH, Ba/F3 EGFR-V769_D770insASV, BaF3 ERBB2 A775_G776 ins YVMA, the cell lines were constructed by Beijing Kang Yuan Bochuang Biotechnology Co., Ltd. Plate reading instrument: Envision (PerkinElmer).
Cells in logarithmic growth phase were harvested and cell counts were performed using a […]. Cell viability was detected by the Taipan Blue rejection assay. The cell concentration was adjusted; the cell suspension was added to a 96-well plate separately. Cells in 96-well plates were incubated overnight at 37° C., 5% CO2, and 95% humidity. To prepare the drug solution, 10 μL of drug solution was added to each well of the 96-well plate inoculated with cells, and three replicate wells were set up for each drug concentration. The cells in the 96-well plates added with drugs were placed at 37° C., 5% CO2, 95% humidity and continued to incubate for 72 hours, after which CTG analysis was performed and the cells were vibrated on an orbital shaker to lyse the cells. The cell plate was placed at room temperature to stabilize the cold light signal, and the cold light values were read. The data were analyzed using GraphPad Prism 7.0 software, and a nonlinear S-curve regression was used to fit the data to derive the dose-effect curve from which the IC50 values were calculated.
The IC50 of anti-proliferation activity against Ba/F3 Exon20 insertion mutant cells of the compounds of the present disclosure is shown in Table 5.
Ba/F3 exon 20 insertion mutant cells are cell lines with SVD, NPH, ASV, and YVMA insertion mutations artificially constructed using mouse B cells, and it can be seen from Table 5 that the compounds of the present disclosure have better cellular anti-proliferation activity against the […] exon 20 insertion mutations such as SVD, NPH, ASV, and YVMA, and also show better anti-proliferation activity against common exon 20 insertion mutations such as SVD mutation.

Data set [2] in a line: Compound stability test in plasma (monkey). Format: in vitro ADME, cynomolgus monkey. As for the experimental part: In this study, mouse, SD rat, Beagle, cynomolgus monkey and human plasma were used as materials to investigate the stability of the tested compounds in the plasma of the above five species. Propantheline, Enalapril, Bisacodyl and Procaine were used as control compounds.
The experimental conditions for the test compounds were as follows: • test concentration: 2 μM (DMSO ≤0.5%); • incubation times: 0, 10, 30, 60 and 120 minutes; • frozen plasma (from multiple species) was used in the test system; • incubation conditions: 37° C.
The mixed frozen plasma was thawed in a 37° C. water bath prior to the experiment. Plasma was centrifuged at 4000 rpm for 5 minutes and cleared if there was a clot. The pH will be adjusted to 7.4±0.1 if required.
The intermediate solution of 1 mM compound and positive control was prepared by diluting 10 mM stock solution with 90 μL of dimethyl sulfoxide. 100 μM solution was prepared by diluting 20 μL of intermediate solution (1 mM) with 180 μL of 45% methanol/water.
2 μL of 100 μM solution was added to 98 μL of blank plasma to achieve a final concentration of 2 μM (in duplicate) of the sample, and the sample was incubated in a 37° C. water bath. At each time point (0, 10, 30, 60 and 120 min), 400 μL of termination solution (200 ng/mL toluenesulfonylurea and 200 ng/mL labetalol, 50% ACN/MeOH) was added to precipitate the proteins and mixed thoroughly. […]

The target in another data set is T1, Wild-type EGFR enzymes (Homo sapiens, UniProt P00533).
T1 construct: purchased Invitrogen PR7295B
In words: Kinase assay (HTRF KinEASE TK), EGFR WT. It counts as biochemical. The following applies: read-out: Enzyme IC50. The text has this: To detect the inhibitory effect of compounds on EGFR WT, EGFR (D770_N771insNPG), ERBB2 (V777_G778ins>CG), EGFR T790M/L858R enzyme activities
EGFR WT (Invitrogen, Cat. No. PR7295B), EGFR [L858R] (Invitrogen, Cat. No. PR7447A), EGFR [d746-750] (Invitrogen, Cat. No. PV6179), ATP (Sigma, Cat. No. A7699-1G), DMSO (Sigma, Cat. No. D2650), DTT (Sigma, Cat. No. 43815), 384-well plate, compound dilution plate (Greiner, Cat. No. 781280), 384-well plate, test plate (Perkin Elmer, Cat. No. 6007299), HTRF KinEASE TK Kit (Cisbio, Cat. No. 62TK0PEB), magnesium chloride (Sigma, Cat. No. M1028), Orthovanadate (Sigma, Cat. No. 56508), BSA (Sigma, Cat. No. A7030), HEPES (Life technology, Cat. No. 11344-041).
The final test concentrations of the test compounds ranged from 10 μM to 0.17 nM in 3-fold gradient dilutions at 11 concentrations.
The preparation of the buffer, 50 mM HEPES (pH 7.5), 0.01% BSA, 5 mM MgCl2, and 0.1 mM Orthovanadate were contained in the buffer. After the preparation of the buffer, the enzyme and substrate were mixed with pre-diluted prepared compounds of different concentrations, and the mixture was placed at room temperature for 15 minutes. […] After the reaction was completed, the antibody was added to the assay, incubated at room temperature for 60 minutes and then detected by Envision (plate reading instrument), and data were collected. […]
Background: In TR-FRET formats the signal depends on donor and acceptor labels being close together.

Ba/F3 EGFR-D770_N771insSVD, sequence (P00533 with tags, fused parts or gaps DUP768-770): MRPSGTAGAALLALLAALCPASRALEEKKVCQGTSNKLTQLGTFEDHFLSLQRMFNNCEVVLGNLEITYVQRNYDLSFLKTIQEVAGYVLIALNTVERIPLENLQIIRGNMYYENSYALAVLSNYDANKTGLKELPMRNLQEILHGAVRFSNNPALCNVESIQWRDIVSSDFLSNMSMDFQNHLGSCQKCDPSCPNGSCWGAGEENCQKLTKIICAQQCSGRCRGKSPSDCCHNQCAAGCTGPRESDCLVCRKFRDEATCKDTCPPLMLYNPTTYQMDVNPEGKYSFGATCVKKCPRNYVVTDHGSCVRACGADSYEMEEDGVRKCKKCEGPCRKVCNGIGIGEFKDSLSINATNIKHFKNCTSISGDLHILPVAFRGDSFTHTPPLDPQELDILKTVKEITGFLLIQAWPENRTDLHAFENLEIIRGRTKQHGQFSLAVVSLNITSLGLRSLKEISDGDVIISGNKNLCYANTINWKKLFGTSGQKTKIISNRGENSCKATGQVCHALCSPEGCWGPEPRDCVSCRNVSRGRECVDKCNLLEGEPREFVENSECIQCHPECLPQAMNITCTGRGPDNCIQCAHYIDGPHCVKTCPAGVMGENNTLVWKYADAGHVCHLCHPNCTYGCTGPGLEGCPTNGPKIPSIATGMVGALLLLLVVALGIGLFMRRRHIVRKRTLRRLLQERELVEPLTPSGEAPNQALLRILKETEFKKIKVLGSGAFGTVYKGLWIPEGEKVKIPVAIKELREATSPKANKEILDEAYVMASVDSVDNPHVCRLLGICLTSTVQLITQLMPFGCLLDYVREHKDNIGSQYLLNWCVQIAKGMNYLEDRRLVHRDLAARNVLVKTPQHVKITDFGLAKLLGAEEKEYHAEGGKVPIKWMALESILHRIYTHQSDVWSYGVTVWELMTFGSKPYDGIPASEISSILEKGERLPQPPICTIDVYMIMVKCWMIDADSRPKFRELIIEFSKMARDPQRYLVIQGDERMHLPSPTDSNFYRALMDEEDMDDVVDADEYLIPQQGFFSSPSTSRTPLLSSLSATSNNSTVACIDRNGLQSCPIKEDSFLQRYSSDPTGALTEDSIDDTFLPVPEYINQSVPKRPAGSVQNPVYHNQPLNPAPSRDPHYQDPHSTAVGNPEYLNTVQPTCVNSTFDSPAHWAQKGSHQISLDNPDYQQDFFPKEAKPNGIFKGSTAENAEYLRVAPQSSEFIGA
T1 sequence (P00533 25-1210): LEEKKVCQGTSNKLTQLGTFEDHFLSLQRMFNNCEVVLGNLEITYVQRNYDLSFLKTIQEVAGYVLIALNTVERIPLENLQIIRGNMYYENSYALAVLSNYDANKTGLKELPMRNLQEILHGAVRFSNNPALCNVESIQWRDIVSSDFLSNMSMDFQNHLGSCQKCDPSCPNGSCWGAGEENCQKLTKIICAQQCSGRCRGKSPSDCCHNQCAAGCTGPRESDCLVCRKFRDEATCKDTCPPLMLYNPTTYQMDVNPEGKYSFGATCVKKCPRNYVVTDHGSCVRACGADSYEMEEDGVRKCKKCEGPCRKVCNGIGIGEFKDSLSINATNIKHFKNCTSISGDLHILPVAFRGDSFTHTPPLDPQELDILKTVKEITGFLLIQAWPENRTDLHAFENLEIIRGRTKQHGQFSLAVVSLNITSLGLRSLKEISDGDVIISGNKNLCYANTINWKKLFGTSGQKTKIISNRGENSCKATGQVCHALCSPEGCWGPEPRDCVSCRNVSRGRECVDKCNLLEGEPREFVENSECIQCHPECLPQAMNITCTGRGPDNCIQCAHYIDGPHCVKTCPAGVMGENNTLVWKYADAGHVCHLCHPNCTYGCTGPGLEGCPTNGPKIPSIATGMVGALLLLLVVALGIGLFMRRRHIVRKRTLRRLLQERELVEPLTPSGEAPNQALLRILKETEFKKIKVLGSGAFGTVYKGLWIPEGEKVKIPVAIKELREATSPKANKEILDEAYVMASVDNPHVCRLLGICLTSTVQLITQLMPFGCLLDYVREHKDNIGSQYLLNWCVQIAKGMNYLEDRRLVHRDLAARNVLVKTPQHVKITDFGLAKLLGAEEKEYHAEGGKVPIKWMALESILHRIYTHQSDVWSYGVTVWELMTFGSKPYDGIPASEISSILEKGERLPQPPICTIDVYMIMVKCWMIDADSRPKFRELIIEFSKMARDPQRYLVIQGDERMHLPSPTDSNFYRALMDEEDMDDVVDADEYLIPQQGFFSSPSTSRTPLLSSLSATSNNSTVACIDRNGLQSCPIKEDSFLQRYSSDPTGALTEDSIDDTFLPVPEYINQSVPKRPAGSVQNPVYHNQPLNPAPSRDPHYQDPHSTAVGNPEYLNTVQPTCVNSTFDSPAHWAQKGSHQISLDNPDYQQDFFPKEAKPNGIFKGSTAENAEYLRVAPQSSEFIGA

As to `C=CC(=O)Nc1cc(Nc2ncc(C(=O)OC(C)C)c(-c3cn(OC)c4ccccc34)n2)c(OC)cc1N(C)CCN(C)C.CS(=O)(=O)O` [Compound 1], the GI50 in data set [1] was 27 nM and 24 nM. The “In vitro plasma stability (Residual percentage)” value in data set [2] (120 minutes, 2 μM, 37° C.) was 93.7%. Further, in data set [2] (pH 7.4, 37° C., read-out: In vitro plasma half-life T1/2), the half-life at 2 µM is above 4.82 h. In addition, at Wild-type EGFR enzymes, the IC50 (in general, the concentration that inhibits the measured activity by half) turned out to be 0.39 nM.

For the origin of these results see US11530196B2, “Pyrimidine compound acting on EGFR and ERBB2” (CHINA RESOURCES PHARMACEUTICAL HOLDINGS COMPANY LIMITED, priority 2019, dated 2022).
